Values joined by “and” are separate entries in the source; they are usually repeats but may differ in a detail not shown here. Equal values may be shown once. “Also recorded” adds a separate entry of the source. Read-outs that look alike come from different tables or passages of the source.
Assays:
IDO1 = settings: cited from earlier work
rhIDO1 = rhIDO1 (Homo sapiens, UniProt P14902); experiment: Enzyme-based IDO1 activity assay (kynurenine absorbance at 492 nm); format: biochemical; settings: for IC50: rhIDO1 0.05 μM, 37 °C, 45 min, read-out: IDO IC50; for inhibition at 50 µM: shown when calculated IC50 >50 μM, read-out: IDO inhibition rate (%) at 50 μM
Method: (§1) The compounds on IDO1 or TDO activity were determined as follows: A standard reaction mixture (100 μL) containing 100 mM potassium phosphate buffer (pH 6.5), 40 mM ascorbic acid (neutralized with NaOH), 200 μg/mL catalase, 20 μM methylene blue and 0.05 μM rhIDO1 or rhTDO was added to the solution containing the substrate L-tryptophan and the test sample at a determined concentration. […] The yellow pigment derived from kynurenine was measured at 492 nm using a SYNERGY-H1 microplate reader (Biotek Instruments, Inc., Winooski, VT, USA). IC50 was analyzed using the GraphPad Prism 8.0 software (GraphPad Software, San Diego, CA, USA).

rhTDO = rhTDO (Homo sapiens, UniProt P48775); experiment: Enzyme-based TDO activity assay (kynurenine absorbance at 492 nm); format: biochemical; settings: for inhibition at 50 µM: shown when calculated IC50 >50 μM, read-out: TDO inhibition rate (%) at 50 μM
Method: as §1

MCF7 = experiment: Cell viability MTT assay, 72 h; format: cell-based; settings: Homo sapiens; for inhibition at 50 µM: shown when calculated IC50 >50 μM, read-out: MCF7 inhibition rate (%) at 50 μM
Method: (§2) B16-F10 mouse melanoma cells, NCI-H460 human lung cancer cell line and MCF7 were obtained from American Type Culture Collection (ATCC). All the cell lines were cultured with Dulbecco’ modified Eagle’s medium (DMEM) (Invitrogen Corporation, Waltham, MA, USA) supplemented with 10% fetal bovine serum (FBS) (Hyclone, Waltham, MA, USA) and 1% penicillin streptomycin (Invitrogen) at 37 °C in 5% CO2.
(§3) The in vitro inhibitory effects of the compounds were measured by MTT assay. Briefly, different kinds of cells were plated in 96-well plates at a density of 2000/well. After attachment for overnight at 37 °C, the cells were treated with the compounds at various concentrations. After 72 h culture, the MTT reagent was added to each well, and plates were incubated for another 4 h at 37 °C. Then, the blue-purple crystal formamidine was dissolved in DMSO after discarding the supernatant. Samples were measured using microplate reader at a wavelength of 570 nm (Biotek Instruments, Inc., Winooski, VT, USA). IC50 values were calculated with GraphPad Prism 8.0 software.

[1] = system: NCI-H460 human lung cancer cell line; experiment: Cell viability MTT assay, 72 h; format: cell-based; settings: for inhibition at 50 µM: shown when calculated IC50 >50 μM, read-out: H460 inhibition rate (%) at 50 μM
Method: as §2, §3

[2] = Single dose pharmacokinetic study in male ICR mice; format: in vivo; settings: for half-life: read-out: t1/2β (converted)
Method: The animal Care and Welfare Committee of Institute of Materia Medica, Chinese Academy of Medical Sciences approved all animal care, housing, and laboratory procedures. Male ICR mice were used in the single dose pharmacokinetic studies. Compound DX-03-12 was prepared as 3 mg/mL suspension with 0.5% CMC (containing 0.3% Tween 80) for oral use and was formulated as 3 mg/mL solution with 5% DMSO in saline for intravenous injection. Twenty mice were divided into two groups, 10 in each group. After fasting 12 h with free access to water, mice were treated with a 3 mg/kg i.v. or 30 mg/kg oral dose of compound DX-03-12. Blood samples (50 µL) were collected at 5, 15, 30 min, 1, 2, 4, 6, 8, 12 and 24 h after oral administration and 2, 5, 15, 30 min, 1, 2, 4, 6, 8, 12 and 24 h after intravenous injection. After centrifugation, the plasma samples (15 µL) were precipitated by five volumes of acetonitrile. The supernatant were analyzed by liquid chromatography/tandem mass spectrometry (Agilent Technologies, Santa Clara, CA, USA) with a Zobax C18 column (50 mm × 2.1 mm, 3.5 µm). Compound detection was performed with the mass spectrometer in MRM (multiple reaction monitoring, Agilent Technologies, Santa Clara, CA, USA) negative ionization mode. The selected reaction monitoring transitions were m/z 348.5→160 for compound DX-03-12. The pharmacokinetic parameters were calculated with WinNonlin software V6.3 using non-compartmental analysis (Pharsight Corporation, Mountain View, CA, USA).

[3] = system: mouse melanoma cells B16F10; experiment: In vivo anti-tumor efficacy, B16F10 subcutaneous xenograft model; parameters: species or system mice; settings: 60 mg/kg/day, 19 days treatment
Method: C57BL/6 mice were obtained from Beijing Vital River Laboratory Animal Technology Co., Ltd. (Beijing Vital River Laboratory Animal Technology Co., Ltd, Beijing, China). Studies involving mice were approved by the Experimental Animal Management and Welfare Committee at the Institute of Materia Medica, Peking Union Medical College.
(§4) The mouse melanoma cells B16F10 were cultured and harvested in saline. At day 0 of the experiment, 1 × 10^6 cells were injected subcutaneously into mice, and treatment was initiated at day 1 following the mice enrolled randomly in control and experimental groups. For control group, 0.5% CMCNa was orally administered every day. Compound DX-03-12 was dissolved in 0.5% CMC for oral treatment or dissolved in saline for intraperitoneal treatment. When the mice were sacrificed, the tumors were stripped and weighted. […] The statistical analysis was performed with GraphPad Prism 8.0 software and the significance level was evaluated with a one-way ANOVA model.

[4] = Body weight and white blood cells in B16F10 xenograft mice; format: in vivo; settings: 30 or 60 mg/kg/day oral or i.p.
Method: as §4

pathway = settings: reported value; cited from earlier work
[5] = Figure 1, reported IDO1 inhibitors
[6] = mouse, plasma, PO 30 mg/kg, male ICR mice
[7] = mouse, plasma, iv 3 mg/kg, male ICR mice

Chain of rhIDO1 (P14902 whole entry): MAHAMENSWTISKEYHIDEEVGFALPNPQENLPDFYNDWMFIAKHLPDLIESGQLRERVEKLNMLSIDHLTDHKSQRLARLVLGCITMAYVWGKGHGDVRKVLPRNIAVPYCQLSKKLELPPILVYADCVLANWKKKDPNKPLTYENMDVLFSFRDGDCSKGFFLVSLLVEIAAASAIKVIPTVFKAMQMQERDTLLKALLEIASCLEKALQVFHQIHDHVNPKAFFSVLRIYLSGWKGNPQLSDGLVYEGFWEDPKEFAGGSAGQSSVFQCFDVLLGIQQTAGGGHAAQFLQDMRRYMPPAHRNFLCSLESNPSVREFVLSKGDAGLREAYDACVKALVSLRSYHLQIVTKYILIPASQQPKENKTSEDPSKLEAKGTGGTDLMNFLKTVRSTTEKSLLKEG
Chain of rhTDO (P48775 whole entry): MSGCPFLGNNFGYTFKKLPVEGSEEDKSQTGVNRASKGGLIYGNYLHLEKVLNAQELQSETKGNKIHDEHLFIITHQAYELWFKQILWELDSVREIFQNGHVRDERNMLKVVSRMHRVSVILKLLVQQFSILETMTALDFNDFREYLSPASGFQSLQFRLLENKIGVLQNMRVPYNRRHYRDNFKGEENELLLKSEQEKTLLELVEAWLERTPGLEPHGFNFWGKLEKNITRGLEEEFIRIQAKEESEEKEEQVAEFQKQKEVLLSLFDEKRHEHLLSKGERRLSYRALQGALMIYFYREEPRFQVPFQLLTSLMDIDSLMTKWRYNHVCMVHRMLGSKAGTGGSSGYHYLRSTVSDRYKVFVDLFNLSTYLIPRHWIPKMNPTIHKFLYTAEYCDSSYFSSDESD

Cc1ccc(-c2csc3ncc(C(=O)NCCc4cccc(Cl)c4)n23)cc1 [AMCL-17g]
IC50 (IDO1; reported value): 77 nM

Cc1ccc(NC(=O)Nc2cc([C@H]3C[C@H]3C(=O)O)ccc2N(CC(C)C)CC(C)C)cc1 [BMS-978587]
IC50 (IDO1; [5]): 7.1 nM

C[C@@H](C(=O)Nc1ccc(Cl)cc1)C1CCC(c2ccnc3ccc(F)cc23)CC1 (some centres unmarked) [BMS-986205]
IC50 (IDO1; [5]): 1.7 nM

O=S(=O)(NCCCOc1ccccc1-c1cnc[nH]1)C(F)(F)F [DX-03-12, N-(3-(2-(1H-imidazol-5-yl)phenoxy)propyl)-1,1,1-trifluoromethane sulfonamide]
IC50 (rhIDO1): 300 nM | TDO inhibition, in words (rhTDO): marginal | inhibition at 50 µM (rhTDO): 36.4% | inhibition at 50 µM (MCF7): 6.6% | inhibition at 50 µM [1]: 19.3% | t1/2β ([2]; PO 30 mg/kg, male ICR mice, 30 mg/kg): 4.6 h and 4.61 h | Vss ([2]; iv 3 mg/kg, male ICR mice, 3 mg/kg): 10.1 L/kg | plasma clearance as % of mouse hepatic blood flow ([2]; iv 3 mg/kg, hepatic blood flow 90 mL/min/kg): ~36% | Vd ([2]; male, ICR, mouse, plasma, iv, 3 mg/kg, iv 3 mg/kg, male ICR mice, read-out: Vss): 10 L/kg | half-life ([2]; male, ICR, mouse, plasma, iv, 3 mg/kg, iv 3 mg/kg, male ICR mice): 209 min | bioavailability ([2]; male, ICR, mouse, plasma, oral, 30 mg/kg, PO 30 mg/kg vs iv 3 mg/kg, male ICR mice, read-out: F% (oral bioavailability)): ~96% | half-life ([2]; male, ICR, mouse, plasma, po, 30 mg/kg, PO 30 mg/kg, male ICR mice): ~276 min | AUC(0-inf) [2, 6]: 13100 ng·h/mL | AUC(0-t) [2, 6]: 12900 ng·h/mL | Tmax [2, 6]: 60 min | AUC(0-inf) [2, 7]: 1500 ng·h/mL | AUC(0-t) [2, 7]: 1350 ng·h/mL | Tmax [2, 7]: 1.98 min | clearance [2, 7]: 33.3 mL/min/kg | Cmax ([2]; mouse, PO 30 mg/kg, male ICR mice, plasma): 2960 ng/mL | Cmax ([2]; mouse, iv 3 mg/kg, male ICR mice, plasma): 2140 ng/mL | decrease in tumor weight (tumor growth inhibition) vs control ([3]; i.p.): 72.3% | decrease in tumor weight (tumor growth inhibition) vs control ([3]; oral): 72.2% | effect on body weight of the mice [4]: no obvious weight loss; also recorded: no obvious effect | effect on peripheral white blood cells [4]: no obvious effect

O=C(NCCCOc1ccccc1-c1cnc[nH]1)Nc1ccc(C(F)(F)F)cc1 [DX-03-13, 1-(3-(2-(1H-imidazol-5-yl)phenoxy)propyl)-3-(4-(trifluoromethyl)phenyl)urea]
IC50 (rhIDO1): 500 nM | TDO inhibition, in words (rhTDO): marginal | inhibition at 50 µM (rhTDO): 38.9% | IC50 (MCF7; unit inferred, read-out: MCF7 IC50 or %): 21.4 µM | IC50 ([1]; unit inferred, read-out: H460 IC50 or %): 13.8 µM

COc1ccc(Cl)cc1-c1cn(Cc2ccc(C(F)(F)F)cc2)cn1 [DX-04-01, 4-(5-chloro-2-methoxyphenyl)-1-(4-(trifluoromethyl)benzyl)-1H-imidazole]
inhibition at 50 µM (rhIDO1): 46.2% | inhibition at 50 µM (rhTDO): 26.5% | IC50 (MCF7; read-out: MCF7 IC50): 8.53 µM | IC50 ([1]; read-out: H460 IC50): 12 µM

Oc1ccc(Cl)cc1-c1cn(Cc2ccc(C(F)(F)F)cc2)cn1 [DX-04-02, 4-chloro-2-(1-(4-(trifluoromethyl)benzyl)-1H-imidazol-4-yl)phenol]
inhibition at 50 µM (rhIDO1): 9.7% | inhibition at 50 µM (rhTDO): 18% | IC50 (MCF7; read-out: MCF7 IC50): 35.7 µM | IC50 ([1]; read-out: H460 IC50): 7.69 µM

Oc1ccc(Cl)cc1-c1cn(Cc2ccc(C(F)(F)F)cc2)nn1 [DX-04-05, 4-chloro-2-(1-(4-(trifluoromethyl)benzyl)-1H-1,2,3-triazol-4-yl)phenol]
IDO1 inhibition, in words (rhIDO1): moderate | IC50 (rhIDO1): 23000 nM | inhibition at 50 µM (rhTDO): 22.4% | IC50 (MCF7; read-out: MCF7 IC50): 42.6 µM | IC50 ([1]; read-out: H460 IC50): 22.9 µM

COc1ccc(Cl)cc1-c1cn(Cc2ccc(C(F)(F)F)cc2)nn1 [DX-04-06, 4-(5-chloro-2-methoxyphenyl)-1-(4-(trifluoromethyl)benzyl)-1H-1,2,3-triazole]
inhibition at 50 µM (rhIDO1): 13.5% | inhibition at 50 µM (rhTDO): 23.6% | IC50 (MCF7; read-out: MCF7 IC50): 49.3 µM | IC50 ([1]; read-out: H460 IC50): 48.4 µM

Oc1ccc(Cl)cc1-c1nn[nH]c1-c1ccc(C(F)(F)F)cc1 [DX-04-07, 4-chloro-2-(5-(4-(trifluoromethyl)phenyl)-1H-1,2,3-triazol-4-yl)phenol]
inhibition at 50 µM (rhIDO1): 38.2% | inhibition at 50 µM (rhTDO): 21.4% | IC50 (MCF7; read-out: MCF7 IC50): 12.3 µM | IC50 ([1]; read-out: H460 IC50): 27.4 µM

COc1ccc(Cl)cc1-c1nn[nH]c1-c1ccc(C(F)(F)F)cc1 [DX-04-08, 4-(5-chloro-2-methoxyphenyl)-5-(4-(trifluoromethyl)phenyl)-1H-1,2,3-triazole]
inhibition at 50 µM (rhIDO1): 21.2% | inhibition at 50 µM (rhTDO): 11.2% | inhibition at 50 µM (MCF7): 24.9% | inhibition at 50 µM [1]: 7.5%

O=C1c2ccccc2-n2c1nc1ccccc1c2=O [Tryptanthrin]
IC50 (IDO1; [5]): 534 nM

Cn1cc(C[C@@H](N)C(=O)O)c2ccccc21 [indoximod]
IC50 (pathway): 450 nM
